Assay results: patent publication US9315494B2, “Alkyl-amide-substituted pyridyl compounds useful as modulators of IL-12, IL-23 and/or IFNα responses” (Bristol-Myers Squibb Company, priority 2012, dated 2016)
Like-named read-outs stand apart in the source and are kept apart here.

Columns and labels:
[1] = system: IL-23-stimulated STAT-dependent luciferase reporter in Kit225 T cells; assay: Kit225 T cell assay, IL-23 stimulated STAT-dependent luciferase reporter; type: cell-based, human
Description: (§1) Kit225 T cells with a stably-integrated STAT-dependent luciferase reporter were plated in RPMI (Gibco) containing 10% heat-inactivated FBS (Gibco) and 100 U/mL PenStrep (Gibco). The cells were then stimulated with either 20 ng/mL human recombinant IL-23 or 200 U/mL human recombinant IFNα (PBL InterferonSource) for 5-6 hours. Luciferase expression was measured using the STEADY-GLO® Luciferase Assay System (Promega) according to the manufacturer's instructions.

[2] = system: IFNα-stimulated STAT-dependent luciferase reporter in Kit225 T cells; assay: Kit225 T cell assay, IFNα stimulated STAT-dependent luciferase reporter; type: cell-based, human
Description: as §1

[3] = Kit225 T cells, 20 ng/mL human recombinant IL-23, 5-6 hours, luciferase, read-out: IL23 (Kit225 T Cell Inhibition Data)
[4] = Kit225 T cells, 200 U/mL human recombinant IFNα, 5-6 hours, luciferase, read-out: IFNα (Kit225 T Cell Inhibition Data)

SMILES | IC50 [1, 3] [µM] | IC50 [2, 4] [µM] | IC50 ([1]; Homo sapiens, KIT225, read-out: IL23 (Kit225 T Cell Inhibition Data)) [µM] | IC50 ([2]; Homo sapiens, KIT225, read-out: IFNα (Kit225 T Cell Inhibition Data)) [µM]
CNC(=O)c1cnc(Nc2ccc(F)cn2)cc1Nc1ccc(C(N)=O)cc1OC [Example 233] | 1.37 | 0.87 |  | 
CNC(=O)c1cnc(Nc2cc(C)ccn2)cc1Nc1ccc(Cl)cc1OC [Example 113] | 0.876 | 0.2 |  | 
CNC(=O)c1cnc(Nc2ccccn2)cc1Nc1cccc(F)c1S(C)(=O)=O [Example 46] | 2.98 | 1.39 |  | 
CNC(=O)c1cnc(Nc2ccccn2)cc1Nc1ccc(S(C)(=O)=O)cc1OC [Example 45] | 4.26 | 1.25 |  | 
CNC(=O)c1cnc(Nc2cc(C#N)ccn2)cc1Nc1cccc(F)c1S(C)(=O)=O [Example 48] | 1.61 | 0.96 |  | 
CNC(=O)c1cnc(Nc2cc(-c3ccccc3)ccn2)cc1Nc1ccccc1C(N)=O [Example 75] | 2.03 | 1.73 |  | 
CNC(=O)c1ccc(Nc2cc(Nc3ccc(F)cn3)ncc2C(=O)NC)c(S(C)(=O)=O)c1 [Example 304] | 1.24 | 0.57 |  | 
CNC(=O)c1cnc(Nc2ccc(F)cn2)cc1Nc1ccc(C)cc1 [Example 193] | 3.67 | 3.2 |  | 
CNC(=O)c1ccc(Nc2cc(Nc3ccc(F)cn3)ncc2C(=O)NC)cc1 [Example 243] | 4.61 | 2.11 |  | 
CNC(=O)c1cnc(Nc2ccc(C)cn2)cc1Nc1ccc(Cl)cc1OC [Example 111] | 1.3 | 0.99 |  | 
CNC(=O)c1cnc(Nc2ccc(F)cn2)cc1Nc1cccnc1OC [Example 313] | 1.33 | 0.5 |  | 
CNC(=O)c1cnc(Nc2ccc3ccccc3n2)cc1NC1CCC(F)CC1 (centres unmarked) [Example 287] | 7.94 | 10.2 |  | 
CNC(=O)c1cnc(Nc2cc(C)c(F)cn2)cc1Nc1cccc(-c2nc(C)nn2C)c1OC [Example 386] |  |  | 0.02 | 0.01
CNC(=O)c1cnc(Nc2ccccn2)cc1Nc1ccccc1C(C)(C)O [Example 183] | 9.72 | 5.97 |  | 
CNC(=O)c1ccnc(Nc2cc(Nc3ccc(F)cc3OC)c(C(=O)NC)cn2)c1 [Example 275] | 1.04 | 0.68 |  | 
CNC(=O)c1cnc(Nc2ccc(F)cn2)cc1Nc1ccc(C(=O)N2CCCC2)cc1 [Example 200] | 0.904 | 1.3 |  | 
CNC(=O)c1cnc(Nc2cccc(C)n2)cc1Nc1ccc(Cl)cc1OC [Example 109] | 0.948 | 0.21 |  | 
CNC(=O)c1cnc(Nc2ccc3[nH]ccc3n2)cc1Nc1ccc(Cl)cc1OC [Example 114] | 4.55 | 1.54 |  | 
CNC(=O)c1cnc(Nc2cc(C)c(F)cn2)cc1Nc1cccc(C(=O)Nc2ccccc2)c1OC [Example 328] | 0.6 | 0.12 |  | 

SMILES | IC50 [1, 3] [µM] | IC50 [2, 4] [µM] | IC50 ([1]; Homo sapiens, KIT225, read-out: IL23 (Kit225 T Cell Inhibition Data)) [µM] | IC50 ([2]; Homo sapiens, KIT225, read-out: IFNα (Kit225 T Cell Inhibition Data)) [µM]
CNC(=O)c1cnc(Nc2ccc(F)cn2)cc1Nc1ccc(C(=O)N2CCCCC2)cc1 [Example 244] | 1.16 | 1.26 |  | 
CNC(=O)c1cnc(Nc2cccc(-n3ccccc3=O)n2)cc1Nc1cc(F)cc(F)c1OC [Example 164] | 4.41 | 2.99 |  | 
CNC(=O)c1cnc(Nc2ccc(F)cn2)cc1Nc1ccccc1S(=O)(=O)C(F)(F)F [Example 28] |  | 9.57 |  | 
CNC(=O)c1cnc(Nc2ccc(F)cn2)cc1Nc1cccc(C)c1 [Example 197] | 11.9 | 5.83 |  | 
CNC(=O)c1cnc(Nc2cc3ccccc3cn2)cc1Nc1cc(F)cc(F)c1OC [Example 136] | 0.747 | 0.39 |  | 
CNC(=O)c1cnc(Nc2ccc(C)cn2)cc1Nc1ccc(F)cc1OC [Example 159] | 1.15 | 1.4 |  | 
CNC(=O)c1cnc(Nc2cccc(C(F)(F)F)n2)cc1Nc1ccccc1C(N)=O [Example 95] | 0.96 | 0.68 |  | 
CCS(=O)(=O)c1ccccc1Nc1cc(Nc2ccccn2)ncc1C(=O)NC [Example 31] | 1.86 | 1.23 |  | 
CNC(=O)c1cnc(Nc2cc(C(N)=O)ccn2)cc1Nc1ccc(F)cc1OC [Example 267] | 2.64 | 1.83 |  | 
CNC(=O)c1cnc(Nc2ccc(N3CCCC3=O)cn2)cc1Nc1ccc(F)cc1OC [Example 127] | 0.853 | 0.47 |  | 
CNC(=O)c1cnc(Nc2ccc(C(N)=O)cn2)cc1Nc1ccccc1C(N)=O [Example 93] | 0.467 |  |  | 
CNC(=O)c1cnc(Nc2cc(C#N)ccn2)cc1Nc1cccc(S(C)(=O)=O)c1F [Example 35] | 4.43 |  |  | 
CNC(=O)c1cnc(Nc2cc(S(C)(=O)=O)ccn2)cc1Nc1cccc(F)c1OC [Example 282] | 0.511 |  |  | 
CNC(=O)c1cnc(Nc2cccnn2)cc1Nc1ccccc1C(C)(C)O [Example 182] | 8.85 |  |  | 
CNC(=O)c1cnc(Nc2ccc(F)cn2)cc1Nc1cccc(OC)c1 [Example 202] |  | 6.56 |  | 
CNC(=O)c1cnc(Nc2ccc(F)cn2)cc1Nc1cc2ccccc2cc1C(N)=O [Example 253] |  | 0.44 |  | 
CNC(=O)c1cnc(Nc2ccc(F)cn2)cc1Nc1ccc(F)cc1C [Example 189] |  | 9.37 |  | 
CNC(=O)c1cnc(Nc2ccc(C(F)(F)F)cn2)cc1Nc1ccccc1C(C)(C)O [Example 181] | 6.17 |  |  | 

Continued by falling IC50 [1, 3], values first:

IC50 [1, 3] [µM] | IC50 [2, 4] [µM] | SMILES | IC50 ([1]; Homo sapiens, KIT225, read-out: IL23 (Kit225 T Cell Inhibition Data)) [µM] | IC50 ([2]; Homo sapiens, KIT225, read-out: IFNα (Kit225 T Cell Inhibition Data)) [µM]
0.41 | 0.54 | CNC(=O)c1cnc(Nc2cc(C)ccn2)cc1Nc1cccc(F)c1S(C)(=O)=O [Example 49] |  | 
0.401 | 0.35 | CCc1cccc(Nc2cc(Nc3cc(F)cc(F)c3OC)c(C(=O)NC)cn2)n1 [Example 141] |  | 
0.388 |  | CNC(=O)c1cnc(Nc2cc(C#N)ccn2)cc1Nc1cccc(C)c1C(N)=O [Example 177] |  | 
0.38 | 0.13 | CNC(=O)c1cnc(Nc2cc(C)c(F)cn2)cc1Nc1cccc(C(=O)NCC2CCC2)c1OC [Example 332] |  | 
0.38 | 0.37 | CCN(CC)CCCNc1cc(Nc2cc(Nc3ccccc3S(C)(=O)=O)c(C(=O)NC)cn2)nc(C)n1 [Example 423] |  | 
0.374 | 0.96 | CNC(=O)c1cnc(Nc2cc(C(=O)NCC#N)ccn2)cc1Nc1cccc(F)c1OC [Example 278] |  | 
0.37 | 0.21 | CNC(=O)c1cnc(Nc2cc(C)c(F)cn2)cc1Nc1ccc(C(=O)N2CCCC2)cc1S(C)(=O)=O [Example 411] |  | 
0.368 | 0.15 | CNC(=O)c1cnc(Nc2ccc(N3C(=O)COCC3C)cn2)cc1Nc1ccc(Cl)cc1OC (centres unmarked) [Example 102] |  | 
0.367 | 0.18 | CNC(=O)c1cnc(Nc2ccc(C#N)c(C)n2)cc1Nc1cc(F)cc(F)c1OC [Example 139] |  | 
0.343 | 0.37 | CNC(=O)c1cnc(Nc2cc3ccccc3cn2)cc1Nc1ccccc1C(N)=O [Example 89] |  | 
0.29 | 0.22 | CNC(=O)c1cnc(Nc2cnc(OC)cn2)cc1Nc1ccccc1S(C)(=O)=O [Example 433] |  | 
0.275 | 0.19 | CNC(=O)c1cnc(Nc2cc(C#N)ccn2)cc1Nc1ccc(F)cc1OC [Example 155] |  | 
0.25 | 0.16 | CNC(=O)c1cnc(Nc2cc(C)c(F)cn2)cc1Nc1cccc(C(=O)NCc2c[nH]c3ccccc23)c1OC [Example 353] |  | 
0.25 | 0.15 | CNC(=O)c1cnc(Nc2ccc(F)cn2)cc1Nc1ccccc1S(N)(=O)=O [Example 429] |  | 
0.244 | 0.15 | CNC(=O)c1cnc(Nc2cc(C#N)ccn2)cc1Nc1ccc(Cl)cc1OC [Example 121] |  | 
0.221 | 0.17 | CNC(=O)c1cnc(Nc2cc(C(=O)N3CCCC3)ccn2)cc1Nc1cc(F)cc(F)c1OC [Example 270] |  | 
0.21 | 0.11 | CNC(=O)c1cnc(Nc2ccc(F)cn2)cc1Nc1cccc(C(=O)NC2CC2)c1OC [Example 317] |  | 
0.2 | 0.08 | CNC(=O)c1cnc(Nc2ccc(N3CCOCC3)cn2)cc1Nc1ccc(F)c(F)c1OC [Example 101] |  | 
0.15 | 0.13 | CNC(=O)c1cnc(Nc2cc(C)c(F)cn2)cc1Nc1cccc(C(=O)NCC2(O)CCC2)c1OC [Example 342] |  | 
0.13 | 0.17 | CNC(=O)c1cnc(Nc2ccc(F)cn2)cc1Nc1cc(F)ccc1S(C)(=O)=O [Example 55] |  | 
0.114 | 0.16 | CNC(=O)c1cnc(Nc2cc(C#N)ccn2)cc1Nc1ccc(F)cc1S(C)(=O)=O [Example 34] |  | 
0.108 | 0.08 | CNC(=O)c1cnc(Nc2cc(OC)ccn2)cc1Nc1ccccc1S(C)(=O)=O [Example 15] |  | 
0.0978 | 0.04 | CNC(=O)c1cnc(Nc2ccc(N3CCOCC3)cn2)cc1Nc1ccccc1S(C)(=O)=O [Example 9] |  | 
0.09 | 0.08 | CNC(=O)c1cnc(Nc2cnc(C)c(C)n2)cc1Nc1ccccc1S(C)(=O)=O [Example 416] |  | 
0.09 | 0.11 | CNC(=O)c1cnc(Nc2ccccn2)cc1Nc1ccccc1NS(C)(=O)=O [Example 428] |  | 
0.06 | 0.04 | CNC(=O)c1cnc(Nc2cc(C)c(F)cn2)cc1Nc1cccc(C(=O)NCC(O)c2ccccc2)c1OC (centres unmarked) [Example 331] |  | 
0.0509 | 0.03 | CNC(=O)c1cnc(Nc2cccc(C)n2)cc1Nc1ccccc1S(C)(=O)=O [Example 21] |  | 
0.02 | 0.02 | CNC(=O)c1cnc(Nc2cc(C)nc(C)n2)cc1Nc1cccc(-c2ncn(CCF)n2)c1OC [Example 377] |  | 
0.00836 | 0.00698 | CNC(=O)c1cnc(Nc2ccccn2)cc1Nc1cccc(-c2ncn(C)n2)c1OC [Example 374] |  | 
